Reference: patent US20240174643A1, “SOS1 PROTEIN DEGRADERS, PHARMACEUTICAL COMPOSITIONS THEREOF, AND THEIR THERAPEUTIC APPLICATIONS” (Bio TheryX, Inc., priority 2021, published 2024)

Tests used:
Format in all cases: cell-based
[1] = tested on: SW48 (wt) cells; assay: Cell viability assay (CELLTITER-GLO), SW48 cells; conditions: Homo sapiens, 72 h, 3 days at 37° C., CELLTITER-GLO luminescence, read-out: Inhibition of Cancerous Cells IC50 (μM) SW48 (wt)
Procedure: (§1) AsPC-1, 1358, and SW48 cells were cultured in RPMI 1640 media supplemented with 10% fetal bovine serum, streptomycin, and penicillin. Lovo and SW480 cells were cultured in DMEM media supplemented with 10% fetal bovine serum, streptomycin, and penicillin. The cell lines were plated in their respective medium supplemented with 2.5% fetal bovine serum, streptomycin, and penicillin. All cell lines were plated in white walled 96-well plates at 2,000 cells/well or 384-well plates at 500 cells/well, except Lovo, which were plated at 4,000 or 1,000 cells/well, respectively. The cells were incubated in DMSO (control) or a compound for 3 days at 37° C. under 5% CO2. A CELLTITER-GLO® reagent (100 μL) was then added to each well. After a 10 min incubation with shaking, luminescence was measured using an ENVISION® multimode plate reader.

[2] = tested on: Lovo (G13D) cells; assay: Cell viability assay (CELLTITER-GLO), Lovo cells; conditions: Homo sapiens, 72 h, 3 days at 37° C., CELLTITER-GLO luminescence, read-out: Inhibition of Cancerous Cells IC50 (μM) Lovo (G13D)
Procedure: as §1

[3] = tested on: AsPC-1 (G12D) cells; assay: Cell viability assay (CELLTITER-GLO), AsPC-1 cells; conditions: Homo sapiens, ASPC1, 72 h, 3 days at 37° C., CELLTITER-GLO luminescence, read-out: Inhibition of Cancerous Cells IC50 (μM) AsPC-1 (G12D)
Procedure: as §1

[4] = tested on: SW480 (G12V) cells; assay: Cell viability assay (CELLTITER-GLO), SW480 cells; conditions: Homo sapiens, 72 h, 3 days at 37° C., CELLTITER-GLO luminescence, read-out: Inhibition of Cancerous Cells IC50 (μM) SW480 (G12V)
Procedure: as §1

[5] = tested on: H358 (G12C) cells; assay: Cell viability assay (CELLTITER-GLO), H358 cells; conditions: Homo sapiens, NCI-H358, 72 h, 3 days at 37° C., CELLTITER-GLO luminescence, read-out: Inhibition of Cancerous Cells IC50 (μM) H358 (G12C)
Procedure: as §1

IC50 [1] [µM] | IC50 [2] [µM] | IC50 [3] [µM] | IC50 [4] [µM] | IC50 [5] [µM] | Compound
2.5 | 1.9 | 4.7 | 1.1 | 4.5 | COc1cc2c(N[C@@H](C)c3cccc(Br)c3)nc(C)nc2cc1OCCCCCCCCCN1CCN(C(=O)CNc2cccc3c(N4CCC(=O)NC4=O)nn(C)c23)CC1 [Compound D9, (S)-1-(7-((2-(4-(9-((4-((1-(3-Bromophenyl)ethyl)amino)-6-methoxy-2-methyl-quinazolin-7-yl)oxy)nonyl)piperazin-1-yl)-2-oxoethyl)amino)-1-methyl-1H-indazol-3-yl)dihydropyrimidine-2,4(1H,3H)-dione]
1.2 | 0.19 | – | 0.45 | 2 | COc1cc2c(N[C@H](C)c3cccc(Br)c3)nc(C)nc2cc1OCCCCCCCCCN1CCN(C(=O)CNc2ccc(C3CCC(=O)NC3=O)cc2)CC1 (stereo partly drawn) [Compound B5, 3-(4-((2-(4-(9-((4-(((R)-1-(3-Bromophenyl)ethyl)amino)-6-methoxy-2-methyl-quinazolin-7-yl)oxy)nonyl)piperazin-1-yl)-2-oxoethyl)amino)phenyl)piperidine-2,6-dione]
2.8 | 0.74 | 3.4 | 0.58 | 3.3 | COc1cc2c(N[C@H](C)c3cccc(Br)c3)nc(C)nc2cc1OCCCCCCCCCCCN1CCN(C(=O)COc2cccc(N3CCC(=O)NC3=O)c2)CC1 [Compound C6, (R)-1-(3-(2-(4-(11-((4-((1-(3-Bromophenyl)ethyl)amino)-6-methoxy-2-methyl-quinazolin-7-yl)oxy)undecyl)piperazin-1-yl)-2-oxoethoxy)phenyl)dihydropyrimidine-2,4(1H,3H)-dione]
0.67 | 1.1 | 4.5 | 0.36 | > 10 | COc1cc2c(N[C@H](C)c3cccc(Br)c3)nc(C)nc2cc1OCCCCCCCCCCCN1CCN(C(=O)CNc2ccc3c(N4CCC(=O)NC4=O)nn(C)c3c2)CC1 [Compound D7, (R)-1-(6-((2-(4-(11-((4-((1-(3-Bromophenyl)ethyl)amino)-6-methoxy-2-methyl-quinazolin-7-yl)oxy)undecyl)piperazin-1-yl)-2-oxoethyl)amino)-1-methyl-1H-indazol-3-yl)-dihydropyrimidine-2,4(1H,3H)-dione]
0.85 | 0.37 | – | 0.65 | 1.6 | COc1cc2c(N[C@H](C)c3cccc(Br)c3)nc(C)nc2cc1OCCCCCCCN1CCN(C(=O)CNc2cccc3c(C4CCC(=O)NC4=O)nn(C)c23)CC1 (stereo partly drawn) [Compound D4, 3-(7-((2-(4-(7-((4-(((R)-1-(3-Bromophenyl)ethyl)amino)-6-methoxy-2-methyl-quinazolin-7-yl)oxy)heptyl)piperazin-1-yl)-2-oxoethyl)amino)-1-methyl-1H-indazol-3-yl)-piperidine-2,6-dione]
2.4 | 0.76 | – | 1.7 | 6.4 | COc1cc2c(N[C@H](C)c3cccc(Br)c3)nc(C)nc2cc1OCCCCCCCCCCCN1CCN(C(=O)CNc2cccc3c(C4CCC(=O)NC4=O)nn(C)c23)CC1 (stereo partly drawn) [Compound D6, 3-(7-((2-(4-(11-((4-(((R)-1-(3-Bromophenyl)ethyl)amino)-6-methoxy-2-methylquinazolin-7-yl)oxy)undecyl)piperazin-1-yl)-2-oxoethyl)amino)-1-methyl-1H-indazol-3-yl)piperidine-2,6-dione]
1.1 | 0.34 | – | 0.66 | 1.1 | COc1cc2c(N[C@H](C)c3cccc(Br)c3)nc(C)nc2cc1OCCCCCCCN1CCN(C(=O)CNc2cccc(C3CCC(=O)NC3=O)c2)CC1 (stereo partly drawn) [Compound B1, 3-(3-((2-(4-(7-((4-(((R)-1-(3-bromophenyl)ethyl)amino)-6-methoxy-2-methylquinazolin-7-yl)oxy)heptyl)piperazin-1-yl)-2-oxoethyl)amino)phenyl)piperidine-2,6-dione]
1.3 | 0.94 | 1.4 | 0.73 | 1.2 | COc1cc2c(N[C@H](C)c3cccc(Br)c3)nc(C)nc2cc1OCCCCCCCN1CCN(C(=O)COc2cccc(N3CCC(=O)NC3=O)c2)CC1 [Compound C4, (R)-1-(3-(2-(4-(7-((4-((1-(3-Bromophenyl)ethyl)amino)-6-methoxy-2-methyl-quinazolin-7-yl)oxy)heptyl)piperazin-1-yl)-2-oxoethoxy)phenyl)dihydropyrimidine-2,4(1H,3H)-dione]
2.2 | 0.69 | 2.3 | 1.7 | 1.9 | COc1cc2c(N[C@H](C)c3cccc(Br)c3)nc(C)nc2cc1OCCCCCCCN1CCN(C(=O)COc2ccc(N3CCC(=O)NC3=O)cc2)CC1 [Compound C1, (R)-1-(4-(2-(4-(7-((4-((1-(3-Bromophenyl)ethyl)amino)-6-methoxy-2-methyl-quinazolin-7-yl)oxy)heptyl)piperazin-1-yl)-2-oxoethoxy)phenyl)dihydropyrimidine-2,4(1H,3H)-dione]
1.5 | 0.42 | – | 0.94 | > 10 | COc1cc2c(N[C@H](C)c3cccc(Br)c3)nc(C)nc2cc1OCCCCCCCCCN1CCN(C(=O)CNc2cccc3c(C4CCC(=O)NC4=O)nn(C)c23)CC1 (stereo partly drawn) [Compound D5, 3-(7-((2-(4-(9-((4-(((R)-1-(3-Bromophenyl)ethyl)amino)-6-methoxy-2-methyl-quinazolin-7-yl)oxy)nonyl)piperazin-1-yl)-2-oxoethyl)amino)-1-methyl-1H-indazol-3-yl)-piperidine-2,6-dione]
3.7 | 0.48 | – | 0.3 | 2.1 | COc1cc2c(N[C@H](C)c3cccc(Br)c3)nc(C)nc2cc1OCCCCCCCCCCCN1CCN(C(=O)CNc2ccc(C3CCC(=O)NC3=O)cc2)CC1 (stereo partly drawn) [Compound B6, 3-(4-((2-(4-(11-((4-(((R)-1-(3-bromophenyl)ethyl)amino)-6-methoxy-2-methyl-quinazolin-7-yl)oxy)undecyl)piperazin-1-yl)-2-oxoethyl)amino)phenyl)piperidine-2,6-dione]
1.2 | 0.55 | – | 0.97 | 1.7 | COc1cc2c(N[C@H](C)c3cccc(Br)c3)nc(C)nc2cc1OCCCCCCCCCN1CCN(C(=O)CNc2ccc3c(C4CCC(=O)NC4=O)nn(C)c3c2)CC1 (stereo partly drawn) [Compound D2, 3-(6-((2-(4-(9-((4-(((R)-1-(3-bromophenyl)ethyl)amino)-6-methoxy-2-methylquinazolin-7-yl)oxy)nonyl)piperazin-1-yl)-2-oxoethyl)amino)-1-methyl-1H-indazol-3-yl)piperidine-2,6-dione]
1.7 | 0.55 | – | 0.48 | 2.9 | COc1cc2c(N[C@H](C)c3cccc(Br)c3)nc(C)nc2cc1OCCCCCCCCCCCN1CCN(C(=O)CNc2cccc(C3CCC(=O)NC3=O)c2)CC1 (stereo partly drawn) [Compound B3, 3-(3-((2-(4-(11-((4-(((R)-1-(3-Bromophenyl)ethyl)amino)-6-methoxy-2-methyl-quinazolin-7-yl)oxy)undecyl)piperazin-1-yl)-2-oxoethyl)amino)phenyl)piperidine-2,6-dione]
0.48 | 0.64 | – | 0.61 | 1.4 | COc1cc2c(N[C@H](C)c3cccc(Br)c3)nc(C)nc2cc1OCCCCCCCCCCCN1CCN(C(=O)CNc2ccc3c(C4CCC(=O)NC4=O)nn(C)c3c2)CC1 (stereo partly drawn) [Compound D3, 3-(6-((2-(4-(11-((4-(((R)-1-(3-Bromophenyl)ethyl)amino)-6-methoxy-2-methyl-quinazolin-7-yl)oxy)undecyl)piperazin-1-yl)-2-oxoethyl)amino)-1-methyl-1H-indazol-3-yl)-piperidine-2,6-dione]
1.1 | 0.23 | – | 0.49 | 0.93 | COc1cc2c(N[C@H](C)c3cccc(Br)c3)nc(C)nc2cc1OCCCCCCCN1CCN(C(=O)CNc2ccc(C3CCC(=O)NC3=O)cc2)CC1 (stereo partly drawn) [Compound B4, 3-(4-((2-(4-(7-((4-(((R)-1-(3-bromophenyl)ethyl)amino)-6-methoxy-2-methylquinazolin-7-yl)oxy)heptyl)piperazin-1-yl)-2-oxoethyl)amino)phenyl)piperidine-2,6-dione]
1.8 | 1.1 | – | 1.4 | 2.9 | COc1cc2c(N[C@H](C)c3cccc(Br)c3)nc(C)nc2cc1OCCCCCCCN1CCN(C(=O)CNc2ccc3c(C4CCC(=O)NC4=O)nn(C)c3c2)CC1 (stereo partly drawn) [Compound D1, 3-(6-((2-(4-(7-((4-(((R)-1-(3-Bromophenyl)ethyl)amino)-6-methoxy-2-methyl-quinazolin-7-yl)oxy)heptyl)piperazin-1-yl)-2-oxoethyl)amino)-1-methyl-1H-indazol-3-yl)-piperidine-2,6-dione]
